Test results: article PMC4490784, “Compensatory induction of MYC expression by sustained CDK9 inhibition via a BRD4-dependent mechanism” (eLife, 2015)

Columns and labels:
Assay in all cases: KINOMEscan binding assay
CIT = target: T1, CIT (Homo sapiens, UniProt O14578)
T1 construct: purchased DiscoveRx KINOMEscan
In short: (§1)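 Over 400 kinases were screened. i-CDK9 was applied at 1 and 10 µM. Occupancy was read by competition with an active site-directed ligand.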

CAMK2B = target: T2, CAMK2B (Homo sapiens, UniProt Q13554); details: read-out: % Retention on Solid Support
T2 construct: purchased DiscoveRx KINOMEscan
T2 sequence (Q13554 whole entry): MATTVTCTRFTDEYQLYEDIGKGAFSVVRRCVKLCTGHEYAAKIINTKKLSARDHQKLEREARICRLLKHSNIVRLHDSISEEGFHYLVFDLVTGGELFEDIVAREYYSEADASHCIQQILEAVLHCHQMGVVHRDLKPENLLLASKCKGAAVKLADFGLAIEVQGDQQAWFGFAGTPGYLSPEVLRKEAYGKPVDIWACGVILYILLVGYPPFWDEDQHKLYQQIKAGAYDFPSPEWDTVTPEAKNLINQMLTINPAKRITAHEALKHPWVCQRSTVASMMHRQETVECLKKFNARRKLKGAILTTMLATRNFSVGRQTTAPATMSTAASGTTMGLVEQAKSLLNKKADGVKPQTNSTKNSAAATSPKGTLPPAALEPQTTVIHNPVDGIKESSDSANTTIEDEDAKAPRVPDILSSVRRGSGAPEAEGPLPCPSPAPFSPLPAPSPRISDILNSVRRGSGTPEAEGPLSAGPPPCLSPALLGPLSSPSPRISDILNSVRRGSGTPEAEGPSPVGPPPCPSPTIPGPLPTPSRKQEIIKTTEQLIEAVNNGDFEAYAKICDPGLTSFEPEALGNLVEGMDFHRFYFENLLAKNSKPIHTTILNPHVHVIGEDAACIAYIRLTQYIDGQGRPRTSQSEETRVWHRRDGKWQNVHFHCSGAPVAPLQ
In short: as §1

[1] = target: RPS6KA4(Kin.Dom.2-C-terminal) (Homo sapiens, UniProt O75676); details: read-out: % Retention on Solid Support
In short: as §1

LRRK2(G2019S) = target: T3, LRRK2(G2019S) (Homo sapiens, UniProt Q5S007, G2019S); details: 1 µM i-CDK9; read-out: % Retention on Solid Support
T3 construct: purchased DiscoveRx KINOMEscan
In short: as §1

MAP4K4 = target: T4, MAP4K4 (Homo sapiens, UniProt O95819); details: read-out: % Retention on Solid Support
T4 construct: purchased DiscoveRx KINOMEscan
In short: as §1

MARK2 = target: T5, MARK2 (Homo sapiens, UniProt Q7KZI7); details: read-out: % Retention on Solid Support
T5 construct: purchased DiscoveRx KINOMEscan
In short: as §1

ULK3 = target: T6, ULK3 (Homo sapiens, UniProt Q6PHR2)
T6 construct: purchased DiscoveRx KINOMEscan
T6 sequence (Q6PHR2 whole entry): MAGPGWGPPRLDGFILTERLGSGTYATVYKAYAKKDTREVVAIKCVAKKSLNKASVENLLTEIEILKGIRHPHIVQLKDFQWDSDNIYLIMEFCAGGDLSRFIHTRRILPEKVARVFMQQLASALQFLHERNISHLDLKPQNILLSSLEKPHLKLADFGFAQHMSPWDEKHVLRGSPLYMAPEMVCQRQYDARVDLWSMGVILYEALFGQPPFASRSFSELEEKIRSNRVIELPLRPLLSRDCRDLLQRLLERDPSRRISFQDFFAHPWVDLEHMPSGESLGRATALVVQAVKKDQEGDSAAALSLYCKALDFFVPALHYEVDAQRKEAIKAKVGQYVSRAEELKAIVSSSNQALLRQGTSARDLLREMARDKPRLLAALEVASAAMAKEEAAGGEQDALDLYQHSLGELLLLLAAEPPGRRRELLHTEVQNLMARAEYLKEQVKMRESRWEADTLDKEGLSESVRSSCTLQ
In short: as §1

CAMK2D = target: T7, CAMK2D (Homo sapiens, UniProt Q13557); details: read-out: % Retention on Solid Support
T7 construct: purchased DiscoveRx KINOMEscan
In short: as §1

MKNK2 = target: T8, MKNK2 (Homo sapiens, UniProt Q9HBH9); details: read-out: % Retention on Solid Support
T8 construct: purchased DiscoveRx KINOMEscan
In short: as §1

PHKG2 = target: T9, PHKG2 (Homo sapiens, UniProt P15735); details: read-out: % Retention on Solid Support
T9 construct: purchased DiscoveRx KINOMEscan
T9 sequence (P15735 whole entry): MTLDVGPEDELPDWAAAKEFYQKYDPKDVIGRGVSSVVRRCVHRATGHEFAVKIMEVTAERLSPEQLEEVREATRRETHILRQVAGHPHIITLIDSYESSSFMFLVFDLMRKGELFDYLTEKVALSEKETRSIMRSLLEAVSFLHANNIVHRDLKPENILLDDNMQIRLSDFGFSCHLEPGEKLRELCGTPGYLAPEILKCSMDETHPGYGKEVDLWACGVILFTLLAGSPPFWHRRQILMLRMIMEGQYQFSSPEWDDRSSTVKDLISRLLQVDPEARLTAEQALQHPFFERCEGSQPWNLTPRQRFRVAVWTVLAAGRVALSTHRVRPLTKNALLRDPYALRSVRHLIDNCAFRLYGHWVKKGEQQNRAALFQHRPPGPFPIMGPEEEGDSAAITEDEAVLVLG
In short: as §1

CDK8 = target: T10, CDK8 (Homo sapiens, UniProt P49336)
T10 construct: purchased DiscoveRx KINOMEscan
T10 sequence (P49336 whole entry): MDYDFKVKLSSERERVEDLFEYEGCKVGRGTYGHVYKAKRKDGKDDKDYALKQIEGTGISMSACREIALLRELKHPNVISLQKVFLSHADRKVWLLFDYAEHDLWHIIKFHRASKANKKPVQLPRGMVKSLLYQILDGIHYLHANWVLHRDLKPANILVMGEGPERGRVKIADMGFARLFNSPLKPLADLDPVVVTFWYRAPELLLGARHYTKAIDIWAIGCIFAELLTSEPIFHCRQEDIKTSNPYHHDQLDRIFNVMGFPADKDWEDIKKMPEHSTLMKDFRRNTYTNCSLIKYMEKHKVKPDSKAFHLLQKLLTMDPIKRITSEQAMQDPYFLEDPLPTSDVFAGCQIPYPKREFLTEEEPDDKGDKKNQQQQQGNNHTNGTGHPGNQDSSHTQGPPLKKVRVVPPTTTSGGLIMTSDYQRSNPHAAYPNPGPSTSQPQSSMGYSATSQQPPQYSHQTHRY
In short: as §1

EPHB4 = target: T11, EPHB4 (Homo sapiens, UniProt P54760); details: read-out: % Retention on Solid Support
T11 construct: purchased DiscoveRx KINOMEscan
T11 sequence (P54760 16-987): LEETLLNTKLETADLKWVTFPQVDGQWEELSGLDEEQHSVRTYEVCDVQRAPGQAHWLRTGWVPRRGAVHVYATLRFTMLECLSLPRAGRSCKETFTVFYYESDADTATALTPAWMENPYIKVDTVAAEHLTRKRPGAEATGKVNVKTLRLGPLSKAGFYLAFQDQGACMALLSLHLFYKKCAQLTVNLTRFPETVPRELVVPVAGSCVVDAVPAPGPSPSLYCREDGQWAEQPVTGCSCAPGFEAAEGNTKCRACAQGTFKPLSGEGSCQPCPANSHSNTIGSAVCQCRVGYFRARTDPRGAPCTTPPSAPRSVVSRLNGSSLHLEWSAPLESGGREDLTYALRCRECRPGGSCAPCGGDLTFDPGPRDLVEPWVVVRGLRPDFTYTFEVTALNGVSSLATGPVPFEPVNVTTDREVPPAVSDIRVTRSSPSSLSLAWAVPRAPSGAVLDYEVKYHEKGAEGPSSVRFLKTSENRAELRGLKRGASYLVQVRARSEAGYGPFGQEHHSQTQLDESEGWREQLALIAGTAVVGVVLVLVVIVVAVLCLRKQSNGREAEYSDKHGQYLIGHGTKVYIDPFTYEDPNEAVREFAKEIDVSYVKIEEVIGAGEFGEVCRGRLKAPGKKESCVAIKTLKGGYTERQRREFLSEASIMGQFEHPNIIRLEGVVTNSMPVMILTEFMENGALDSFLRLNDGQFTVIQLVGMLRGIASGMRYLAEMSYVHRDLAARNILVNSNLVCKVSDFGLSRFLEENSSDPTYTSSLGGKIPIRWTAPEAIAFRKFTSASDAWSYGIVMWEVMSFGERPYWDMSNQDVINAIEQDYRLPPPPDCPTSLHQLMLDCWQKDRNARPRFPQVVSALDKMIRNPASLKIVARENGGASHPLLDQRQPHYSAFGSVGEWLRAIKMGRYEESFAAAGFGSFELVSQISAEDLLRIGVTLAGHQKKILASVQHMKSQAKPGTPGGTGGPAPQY
In short: as §1

PRKD1 = target: T12, PRKD1 (Homo sapiens, UniProt Q15139); details: read-out: % Retention on Solid Support
T12 construct: purchased DiscoveRx KINOMEscan
T12 sequence (Q15139 whole entry): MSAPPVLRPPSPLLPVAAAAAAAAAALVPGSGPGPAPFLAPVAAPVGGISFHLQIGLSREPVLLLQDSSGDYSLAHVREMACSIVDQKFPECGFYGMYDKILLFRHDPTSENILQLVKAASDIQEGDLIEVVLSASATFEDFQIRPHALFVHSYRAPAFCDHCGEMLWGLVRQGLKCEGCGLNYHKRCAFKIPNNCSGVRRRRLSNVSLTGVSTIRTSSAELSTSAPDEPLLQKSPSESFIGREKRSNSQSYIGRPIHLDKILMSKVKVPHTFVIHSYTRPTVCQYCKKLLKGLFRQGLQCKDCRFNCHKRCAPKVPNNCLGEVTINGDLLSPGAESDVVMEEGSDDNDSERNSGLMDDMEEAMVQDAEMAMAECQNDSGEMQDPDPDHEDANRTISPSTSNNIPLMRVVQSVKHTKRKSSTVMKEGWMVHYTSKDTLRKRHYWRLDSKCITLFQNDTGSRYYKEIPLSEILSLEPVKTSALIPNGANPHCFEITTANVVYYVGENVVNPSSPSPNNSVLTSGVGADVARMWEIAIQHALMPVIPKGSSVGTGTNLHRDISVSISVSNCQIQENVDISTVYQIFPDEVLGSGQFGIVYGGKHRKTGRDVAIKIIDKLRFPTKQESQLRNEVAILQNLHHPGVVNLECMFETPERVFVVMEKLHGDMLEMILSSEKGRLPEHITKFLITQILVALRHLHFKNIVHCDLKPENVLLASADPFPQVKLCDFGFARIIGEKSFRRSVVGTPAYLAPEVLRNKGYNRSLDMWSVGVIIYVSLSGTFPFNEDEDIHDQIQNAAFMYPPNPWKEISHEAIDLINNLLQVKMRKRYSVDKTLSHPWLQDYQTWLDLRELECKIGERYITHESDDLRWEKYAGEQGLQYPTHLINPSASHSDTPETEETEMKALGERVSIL
In short: as §1

FYN = target: T13, FYN (Homo sapiens, UniProt P06241); details: read-out: % Retention on Solid Support
T13 construct: purchased DiscoveRx KINOMEscan
T13 sequence (P06241 whole entry): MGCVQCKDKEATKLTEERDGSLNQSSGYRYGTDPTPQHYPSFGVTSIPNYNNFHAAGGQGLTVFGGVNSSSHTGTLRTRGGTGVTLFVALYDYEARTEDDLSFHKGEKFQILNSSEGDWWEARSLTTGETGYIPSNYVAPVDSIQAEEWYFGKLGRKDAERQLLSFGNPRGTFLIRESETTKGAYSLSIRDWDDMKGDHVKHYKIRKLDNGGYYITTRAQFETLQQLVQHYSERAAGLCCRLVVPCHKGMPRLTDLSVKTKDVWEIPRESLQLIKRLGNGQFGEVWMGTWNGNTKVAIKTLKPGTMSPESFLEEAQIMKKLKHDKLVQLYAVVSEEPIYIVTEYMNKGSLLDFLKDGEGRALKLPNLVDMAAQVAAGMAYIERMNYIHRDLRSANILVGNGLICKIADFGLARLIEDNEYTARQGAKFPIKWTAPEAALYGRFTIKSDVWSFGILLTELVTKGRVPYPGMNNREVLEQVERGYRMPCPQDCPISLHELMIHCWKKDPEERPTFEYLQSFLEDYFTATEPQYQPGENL
In short: as §1

DYRK1A = DYRK1A (Homo sapiens, UniProt Q13627); details: read-out: % Retention on Solid Support
In short: as §1

MST1 = target: T14, MST1 (Homo sapiens, UniProt Q13043)
T14 construct: purchased DiscoveRx KINOMEscan
In short: as §1

PIP5K1C = target: T15, PIP5K1C (Homo sapiens, UniProt O60331); details: 1 µM i-CDK9
T15 construct: purchased DiscoveRx KINOMEscan
In short: as §1

GCN2(Kin.Dom.2,S808G) = target: T16, GCN2(Kin.Dom.2,S808G) (Homo sapiens, UniProt Q9P2K8, S808G); details: read-out: % Retention on Solid Support
T16 construct: GCN2(Kin.Dom.2,S808G); purchased DiscoveRx KINOMEscan
T16 sequence (Q9P2K8 590-1001 S808G limits assumed): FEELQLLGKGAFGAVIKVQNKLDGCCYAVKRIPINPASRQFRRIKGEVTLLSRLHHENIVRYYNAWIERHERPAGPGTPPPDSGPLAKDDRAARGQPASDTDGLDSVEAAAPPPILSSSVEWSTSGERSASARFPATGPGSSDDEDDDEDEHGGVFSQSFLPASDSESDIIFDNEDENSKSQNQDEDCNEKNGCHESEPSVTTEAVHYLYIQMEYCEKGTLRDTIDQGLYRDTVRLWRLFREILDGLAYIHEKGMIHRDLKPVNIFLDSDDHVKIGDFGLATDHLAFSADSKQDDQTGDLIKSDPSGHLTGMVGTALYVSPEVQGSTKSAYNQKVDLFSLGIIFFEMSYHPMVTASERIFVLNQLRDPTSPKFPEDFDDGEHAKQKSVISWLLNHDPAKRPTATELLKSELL
In short: as §1

MAP4K3 = target: T17, MAP4K3 (Homo sapiens, UniProt Q8IVH8)
T17 construct: purchased DiscoveRx KINOMEscan
T17 sequence (Q8IVH8 whole entry): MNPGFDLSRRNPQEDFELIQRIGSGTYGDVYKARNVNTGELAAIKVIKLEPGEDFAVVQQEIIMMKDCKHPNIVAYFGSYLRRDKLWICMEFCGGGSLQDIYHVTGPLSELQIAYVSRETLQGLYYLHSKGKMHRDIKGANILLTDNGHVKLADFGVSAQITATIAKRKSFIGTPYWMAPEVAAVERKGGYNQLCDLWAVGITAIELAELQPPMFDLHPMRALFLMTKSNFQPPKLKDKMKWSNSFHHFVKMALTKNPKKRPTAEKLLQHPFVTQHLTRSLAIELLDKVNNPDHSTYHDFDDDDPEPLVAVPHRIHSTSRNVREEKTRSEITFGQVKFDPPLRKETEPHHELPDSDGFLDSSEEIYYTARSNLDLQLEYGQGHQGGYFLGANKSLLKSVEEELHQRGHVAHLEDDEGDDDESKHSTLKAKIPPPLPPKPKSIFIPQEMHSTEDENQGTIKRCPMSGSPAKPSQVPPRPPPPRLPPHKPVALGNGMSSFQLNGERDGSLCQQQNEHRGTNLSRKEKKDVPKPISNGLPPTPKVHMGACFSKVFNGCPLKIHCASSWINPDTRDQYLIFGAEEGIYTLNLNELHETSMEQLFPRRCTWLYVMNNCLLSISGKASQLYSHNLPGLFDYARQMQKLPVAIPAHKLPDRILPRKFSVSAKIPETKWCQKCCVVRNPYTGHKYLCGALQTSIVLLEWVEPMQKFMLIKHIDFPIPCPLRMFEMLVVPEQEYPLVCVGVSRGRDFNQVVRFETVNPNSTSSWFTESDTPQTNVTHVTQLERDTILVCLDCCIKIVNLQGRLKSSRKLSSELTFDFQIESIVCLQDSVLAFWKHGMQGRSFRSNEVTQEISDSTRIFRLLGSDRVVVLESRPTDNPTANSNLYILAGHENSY
In short: as §1

N[C@H]1CC[C@H](Nc2cc(-c3cccc(NCc4cccc(F)c4)n3)c(Cl)cn2)CC1 [i-CDK9, N2′-(trans-4-aminocyclohexyl)-5′-chloro-N6-(3-fluorobenzyl)-2,4′-bipyridine-2′,6-diamine] was tested, and the “% Retention on Solid Support” value (CIT; 1 µM i-CDK9) was 60%, the “% Retention on Solid Support” value (CIT; 10 µM i-CDK9) was 8.2% and the remaining binding at 1 µM (CAMK2B; 1 µM i-CDK9) was 100%. It also gave a remaining binding at 10 µM (CAMK2B; 10 µM i-CDK9) of 81%, a remaining binding at 1 µM ([1]; 1 µM i-CDK9) of 100% and a remaining binding at 10 µM ([1]; 10 µM i-CDK9) of 74%. It also gave a remaining binding at 1 µM (LRRK2(G2019S)) of 100%, a remaining binding at 1 µM (MAP4K4; 1 µM i-CDK9) of 65% and a remaining binding at 10 µM (MAP4K4; 10 µM i-CDK9) of 19%. The remaining binding at 1 µM (MARK2; 1 µM i-CDK9) was 76%, the remaining binding at 10 µM (MARK2; 10 µM i-CDK9) was 86% and the “% Retention on Solid Support” value (ULK3; 1 µM i-CDK9) was 94%. For the same compound, the “% Retention on Solid Support” value (ULK3; 10 µM i-CDK9) was 88%, the remaining binding at 1 µM (CAMK2D; 1 µM i-CDK9) was 100% and the remaining binding at 10 µM (CAMK2D; 10 µM i-CDK9) was 100%. It also gave a remaining binding at 1 µM (MKNK2; 1 µM i-CDK9) of 100%, a remaining binding at 10 µM (MKNK2; 10 µM i-CDK9) of 99% and a remaining binding at 1 µM (PHKG2; 1 µM i-CDK9) of 100%. For the same compound, the remaining binding at 10 µM (PHKG2; 10 µM i-CDK9) was 72%, the “% Retention on Solid Support” value (CDK8; 1 µM i-CDK9) was 44% and the “% Retention on Solid Support” value (CDK8; 10 µM i-CDK9) was 100%. For the same compound, the remaining binding at 1 µM (EPHB4; 1 µM i-CDK9) was 100%, the remaining binding at 10 µM (EPHB4; 10 µM i-CDK9) was 100% and the remaining binding at 1 µM (PRKD1; 1 µM i-CDK9) was 55%. It also gave a remaining binding at 10 µM (PRKD1; 10 µM i-CDK9) of 20%, a remaining binding at 1 µM (FYN; 1 µM i-CDK9) of 69% and a remaining binding at 10 µM (FYN; 10 µM i-CDK9) of 100%. For the same compound, the remaining binding at 1 µM (DYRK1A; 1 µM i-CDK9) was 1.3%, the remaining binding at 10 µM (DYRK1A; 10 µM i-CDK9) was 0% and the “% Retention on Solid Support” value (MST1; 1 µM i-CDK9) was 100%. For the same compound, the “% Retention on Solid Support” value (MST1; 10 µM i-CDK9) was 100%, the “% Retention on Solid Support” value (PIP5K1C) was 85% and the remaining binding at 1 µM (GCN2(Kin.Dom.2,S808G); 1 µM i-CDK9) was 100%. The remaining binding at 10 µM (GCN2(Kin.Dom.2,S808G); 10 µM i-CDK9) was 100%, the “% Retention on Solid Support” value (MAP4K3; 1 µM i-CDK9) was 85% and the “% Retention on Solid Support” value (MAP4K3; 10 µM i-CDK9) was 70%.
